The record followed here is patent US20020183340A1, “4-(4'-HYDROXYPHENYL) AMINO-6,7-DIMETHOXYQUINAZOLINE TO PREVENT DEVELOPMENT OF COLORECTAL CANCER” (Parker Hughes Institute, priority 1999, published 2002).

The test relates to APC^min mouse model. The test can be described thus: APC^min mouse model of colorectal cancer development (chow supplemented with compound). It counts as in vivo, mice. As to conditions: for Probability Of Survival: APC^min mice fed chow with 0.3 wt % compound once a week from six weeks of age, n = 23. From the text: An APC^min mouse model was used to test the ability of 4-(4′-hydroxyphenyl)-amino-6,7-dimethoxyquinazoline to prevent the development of colorectal cancer. A total of 23 APC^min mice were fed rodent chow, which was supplemented with 0.3 wt % 4-(4′-hydroxyphenyl)-amino-6,7-dimethoxyquinazoline once a week starting at six weeks of age. A control group of 30 mice were fed rodent chow without 4-(4′-hydroxyphenyl)-amino-6,7-dimethoxyquinazoline. The health status of the mice was monitored for thirty weeks. Table 1 below describes the Probability of Survival for each group of mice over a period of 210 days.

Take `COc1cc2ncnc(Nc3ccc(O)cc3)c2cc1OC` [4-(4′-hydroxyphenyl)-amino-6,7-dimethoxyquinazoline]: the “Probability Of Survival” value (age 90 days) is on record as 100 ± 0; the “Probability Of Survival” value (age 120 days) came to 94 ± 5; the “Probability Of Survival” value (age 150 days) is 81 ± 10; the “Probability Of Survival” value (age 180 days) is listed as 68 ± 12; the “Probability Of Survival” value (age 210 days) was determined as 68 ± 12. Moreover, the mice still alive (by thirty weeks of age, mice fed compound (17% of the control mice)) came to 68%.
